Several values for one entry are separate records, joined by “and”; a condition that tells them apart may be missing. Equal values may be shown once.
Columns and labels:
[1] = system: murine dispersed islet cells; test: Glucagon secretion from murine dispersed islet cells; assay type: cell-based, mouse; conditions: for Secretion of glucagon: Rhy (2.5 µM) alone, listed as Rhy
Protocol: (§1) Pancreata of nondiabetic C57BL/6J mice were digested using collagenase P (Roche Diagnostics, catalog 11213873001), and islets were manually picked up using a stereomicroscope (ZEISS Stemi 305). […] Isolated mouse islets or provided human islets were dispersed as described ([28]). Briefly, 100–120 islets were washed 2 times using modified HBSS, then dispersed in 600 μL Accutase (Innovative Cell Technologies, catalog AT-104) by gently pipetting up and down for 7 minutes at 37°C. […] Following refreshing of KRBH, cells were dispensed in 8 microfuge tubes (2,000 cells/tube) and treated with WCDD301, preclustered Ephrin-A5 Fc, or preclustered Fc in the presence or absence of the competitive inhibitor of EphA4 receptor, rhyncophylline ([60]) (MilliporeSigma, catalog SML2345). In the presence or absence of these effectors, secretion assay was performed sequentially as shown in Supplemental Table 5. […] Preclustering of Ephrin-A5 Fc was done by mixing Ephrin-A5 Fc or Fc alone (BioLegend, catalog 790102) with anti-Fc antibody (Invitrogen, catalog A16086) (1:10 molar ratio) 20 minutes before treatment ([62]). […] Shedding of cleaved EphA4 was measured from the cell culture medium. Experiments were performed by dispersion of 200 islets, and EphA4 levels in media were measured by EphA4 ELISA (ABclonal, catalog RK06572).

[2] = Microsomal stability assay, human liver microsomes; assay type: in vitro ADME; conditions: for Remaining in hepatic microsomes (100 at 0 min): human microsomes, Figure 5C; for Hepatic clearance: predicted from microsomal data
Protocol: (§2) A total of 445 μL of the working solution was transferred into prewarmed incubation plates for treated (T60) and control (NCF60) measurements. After preincubation (10 minutes at 37°C with constant shaking), 54 μL was transferred to the blank plate, followed by 6 μL of NADPH and 180 μL quenching solution. In parallel, 5 μL of WCDD301 (100 μM) was added into incubation plates (T60 and NCF60) containing microsomes and mixed thoroughly (3 times). For the NCF60 plate, 50 μL of buffer was added, mixed (thoroughly, 3 times), shaken, and incubated at 37°C for 60 minutes. In the quenching plate T0, quenching solution (180 μL) and NADPH cofactor (6 μL) were added. For T60 plate, 54 μL of the mixture was placed into the quenching plate (for T0 point), followed by adding 44 μL NADPH cofactor with shaking incubation at 37°C for 60 minutes. Quenching solution (180 μL) was added to quenching plates at 5, 15, 30, 45, and 60 minutes, and 60 μL of sample was transferred from T60 plate per time point to the quenching plates. For the NCF60 plates, 60 μL sample from the NCF60 incubation plate was transferred to the quenching plate (containing quenching solution) at the 60-minute time point. After plates were shaken for 10 minutes and centrifuged (1,750g, 20 minutes at 4°C), 80 μL of the supernatant was transferred into 240 μL HPLC water for LC-MS/MS analysis. The following first-order kinetic equation was used to calculate half-life (T1/2): [drawing 3]; when
(§3) Then, intrinsic clearance [CLint (microsomal; mic)] and hepatic clearance [CLint (liver)] were predicted using the following equations ([66]): […]

[3] = Microsomal stability assay, CD-1 mouse liver microsomes; assay type: in vitro ADME; conditions: for Remaining in hepatic microsomes (100 at 0 min): mouse microsomes, Figure 5D; for Hepatic clearance: mouse, predicted from microsomal data
Protocol: as §2, §3

[4] = system: human donor dispersed islet cells; test: Glucagon secretion from healthy human donor dispersed islet cells; assay type: cell-based; conditions: human α cells; range of concentrations; Supplemental Figure 1A
Protocol: as §1
The Integrated Islet Distribution Program provided us human donor islets with their characteristics (Supplemental Table 6). Islets were centrifuged at 500g for 3 minutes, resuspended in CMRL 1066 medium (Gibco, catalog 1150-037) containing 11 mM glucose, and rested in an incubator overnight.
For the hormone secretion assay, islets or dispersed islet cells were adapted in KRBH buffer containing 11 mM glucose for 1 hour. Then, after 2 washes in HBSS containing 11 mM glucose, islets or cells were treated in the following sequential order in the presence or absence of WCDD301: incubation in KRBH (1 mM glucose, 30 minutes) followed by medium collection, incubation in KRBH (11 mM glucose, 30 minutes) followed by medium collection.

[5] = Plasma stability assay, human plasma; assay type: in vitro ADME; conditions: for Ln (% Remaining): human plasma, 37°C, Figure 5A
Protocol: (§4) Pooled frozen plasma of CD-1 mice (n = 20; catalog MSE00PLK2M2N, Beijing Vital River Laboratory Animal Technology) or humans (n = 6, catalog […]2P2N, Bioreclamation IVT), equal numbers of males and females, was thawed in a 37°C water bath, and residual clots were removed by centrifugation (500g for 5 minutes). Plasma (98 μL) was aliquoted in each well of 96-well reaction plates using an Apricot automation workstation. WCDD301 (100 μM) or propantheline bromide (100 μM, as a positive control) was added (2 μL/well) to sets of wells assigned to blank or time points (T0, T10, T30, T60, and T120 minutes) and incubated at 37°C. At each time point, the reaction was stopped by adding stop solution (500 μL; a mixture of 200 ng/mL of tolbutamide and labetalol in acetonitrile), mixed thoroughly, sealed, shaken (20 minutes), and centrifuged (1,750g, 4°C, 20 minutes). A total of 150 μL of the supernatant from each well of the reaction plate was transferred to its corresponding bioanalysis plate for LC-MS/MS analysis. The remaining level (%) of the WCDD301 was calculated using the following equation: remaining (%) = (PAR at each time point/PAR at T0) × 100. PAR stands for the peak area ratio of the WCDD301 versus internal standard.

[6] = Plasma stability assay, CD-1 mouse plasma; assay type: in vitro ADME; conditions: for Ln (% Remaining): mouse plasma, 37°C, Figure 5B
Protocol: as §4

## N=C(N)NCCC[C@H](N)C(=O)O [Arginine, reference compound]
[1]; Arginine 25 mM alone, Supplemental Figure 2
  Effect on glucagon secretion: significantly increased glucagon secretion

## O=C(O)Cc1ccccc1Nc1c(Cl)cccc1Cl [Diclofenac]
[2]; human
  Intrinsic microsomal clearance: 313.9 µL/min/mg
  Hepatic clearance: 282.5 mL/min/kg
[2]; 5 min
  Remaining in hepatic microsomes (100 at 0 min): 48.7
[2]; 15 min
  Remaining in hepatic microsomes (100 at 0 min): 9.3
[2]; 30 min
  Remaining in hepatic microsomes (100 at 0 min): 0.9
[2]; human, liver microsomes
  half-life at 1 µM: 4.4 min
[3]; 5 min
  Remaining in hepatic microsomes (100 at 0 min): 85.5
[3]; 15 min
  Remaining in hepatic microsomes (100 at 0 min): 77.8
[3]; 30 min
  Remaining in hepatic microsomes (100 at 0 min): 58.6
[3]; 45 min
  Remaining in hepatic microsomes (100 at 0 min): 52.8
[3]; 60 min
  Remaining in hepatic microsomes (100 at 0 min): 39.3
[3]
  Hepatic clearance: 115.5 mL/min/kg

## COc1cc2nc(N3CCN(C(=O)C4COc5ccccc5O4)CC3)nc(N)c2cc1OC (centres unmarked) [Doxazosin, reference compound]
[1]; mouse α cells, range of concentrations, Supplemental Figure 1B-E
  Effect on glucagon secretion: increased glucagon secretion
[4]
  Effect on glucagon secretion: increased glucagon secretion

## CC(C)[N+](C)(CCOC(=O)C1c2ccccc2Oc2ccccc21)C(C)C [Propantheline, propantheline bromide]
[5]; both sexes, human, plasma
  half-life at 2 µM: 9.8 min
[5]; 10 min
  Ln (% Remaining): -0.39
[5]; 30 min
  Ln (% Remaining): -2.06
[5]; 60 min
  Ln (% Remaining): -4.13
[6]; both sexes, CD-1, mouse, plasma
  half-life at 2 µM: 34.3 min
[6]; 10 min
  Ln (% Remaining): -0.31
[6]; 30 min
  Ln (% Remaining): -0.9
[6]; 60 min
  Ln (% Remaining): -1.58
[6]; 120 min
  Ln (% Remaining): -2.45

## C[C@]12CC[C@H]3[C@@H](CCC4=CC(=O)CC[C@@]43C)[C@@H]1CC[C@@H]2O [Testosterone]
[2]; human
  Intrinsic microsomal clearance: 95.6 µL/min/mg
  Microsomal half-life: 14.5 min
  Hepatic clearance: 86 mL/min/kg
[2]; 5 min
  Remaining in hepatic microsomes (100 at 0 min): 78.1
[2]; 15 min
  Remaining in hepatic microsomes (100 at 0 min): 33
[2]; 30 min
  Remaining in hepatic microsomes (100 at 0 min): 12.9
[2]; 45 min
  Remaining in hepatic microsomes (100 at 0 min): 8.4
[2]; 60 min
  Remaining in hepatic microsomes (100 at 0 min): 6.4
[3]; CD-1, mouse, liver microsomes
  half-life at 1 µM: 5.4 min
[3]; CD-1, mouse, liver microsomes, read-out: Intrinsic microsomal clearance
  microsomal CLint at 1 µM: 257 µL/min/mg
[3]; 5 min
  Remaining in hepatic microsomes (100 at 0 min): 43.1
[3]; 15 min
  Remaining in hepatic microsomes (100 at 0 min): 11.2
[3]; 30 min
  Remaining in hepatic microsomes (100 at 0 min): 2
[3]
  Hepatic clearance: 1018.5 mL/min/kg

## CC[C@H]1CN2CC[C@]3(C(=O)Nc4ccccc43)[C@@H]2C[C@@H]1/C(=C\OC)C(=O)OC [rhyncophylline, reference compound]
[1]; Glucose (1 mM), Figure 1H
  Secretion of glucagon: 0.87 and 0.81 and 0.85 and 0.79 and 0.82
[1]; Glucose (11 mM), Figure 1H
  Secretion of glucagon: 0.41 and 0.5 and 0.38 and 0.45 and 0.4
[1]; competitive inhibitor of EphA4, Figure 1H
  Effect of EphA4 inhibition on suppression of glucagon secretion: abolished the suppressive effect of both Ephrin-A5 and 1.5 μM WCDD301 on glucagon secretion

Reference: article PMC10906223 (JCI Insight, 2024)
